The values below come from patent US12053528B2, “Topical formulations comprising polyoxyl lipid or fatty acid and polyalkoxylated alcohol, and uses thereof” (Sun Pharmaceutical Industries Limited, priority 2015, dated 2024).

The data set can be described thus: Ocular tissue distribution of RX-10045 nanomicellar formulations (LC-MS/MS). Format: in vivo, New Zealand White Rabbits. Particulars: after topical RX-10045 formulations 4x/day for 5 days. On the procedure: A study is conducted in rabbits to test the tolerance and ocular tissue distribution of two nanomicellar formulations of active compound against matching placebos (Table 7a and 7b) and balanced saline solution (BSS). Healthy New Zealand female white rabbits (2-3 kg) are used for this study. One drop (approximately 35 μL) of study drug is applied o.d. 4×/day at two hour intervals for 5 days. One drop of BSS is applied to the contralateral eye.
Selected ocular fluids/tissues (aqueous humor, vitreous humor, conjunctiva, cornea, iris-ciliary body, lens, retina/choroid, and sclera) collected from two rabbits each in the active agent (0.15% in HCO-60, 0.1 in HCO-40) treatment groups, and from one rabbit in each of the matching placebo groups, are assayed for active compound by liquid chromatography-tandem mass spectrometry (LC-MS/MS). Warfarin-d5 and 5-HDA are used as internal standards for the analysis of RX-10045 and its active metabolite, RX-10008, respectively, in aqueous humor and vitreous humor. For the other ocular tissues (solid tissues), warfarin-d5 and phenyl acetic acid-d5 (PAA-d5) are used as the internal standards for compound 1001 and RX-10008, respectively. The analytical range for the solid tissues is 0.125-100 ng. The results of the solid tissue analyses are converted to ng/g by correcting for the amount of tissue analyzed.

As to `C#CC[C@@H](O)/C=C/C=C/C#C[C@@H](O)CCCC(=O)OC(C)C` [compound 1001], the “Compound 1001 in the majority of ocular tissues” value is listed as “either not detected or is below the quantitation limit of the assay”; the “Concentrations of the compound 1001 ester prodrug in the sclera and conjunctiva” value is on record as “sporadic, relatively low”; the “Hydrolysis to active metabolite RX-10008 in ocular tissues” value is reported as “rapidly hydrolyzed”.
